Data reported in US11511054B2, “Use of antistatic materials in the airway for thermal aerosol condensation process” (Alexza Pharmaceuticals, Inc., priority 2015, dated 2022).

Experiments:
[1] = Net charge measurement of thermal condensation aerosol (aerosol electrometer, Staccato single dose); format: physicochemical; conditions: for Total net charge of aerosol particles (in words): standard housing
[2] = Airway deposition and aerosol charges of normal, metallized and Permastat Plus airways (Example 40); format: physicochemical; conditions: 28.3 LPM
Description: Purpose • To compare aerosol charge and airway deposition of various airways: normal airway, Metallizedairway(SS*/Cu/Cu/SS), and Permastat Plus airway.

[3] = Aerosol charge testing with heat packages, screening foils and funnels (Examples 2-3, 12); conditions: for Aerosol charge relative to Alprazolam: Example 2, aerosol electrometer
[4] = Total net charge vs. airway housing deposition, standard vs anti-static polycarbonate housing; conditions: for Net Charge: mean ± SD, N-4
Description: Alprazolam device versions were tested in this part of the study. The first version (used in Part 1) used an airway housing made of polycarbonate with a surface resistivity of—1×10 18 0/sq. The second version used an airway housing made of a lower resistivity polycarbonate (−1×1011 0/sq) to provide charge dissipation.

[5] = Airway deposition and aerosol charges for Permastat, Permastat Plus and standard airway material (Example 38); conditions: 1 mg, 28.3 LPM, mean of 4 devices
Description: Purpose: • To find out the aerosol charge generated from Permastat and Permastat Plus airways and to compare that to normal airway (control)
Materials/Equipment • Standard airway material: makrolon polycarbonate • Permastat: surface resistivity ˜1E11 ohm/sq • Permastat Plus: surface resistivity ˜1E9 ohm/sq • Drug: alprazolam

[6] = no applied potential to airway housing, mean ± SD

For Cc1nnc2n1-c1ccc(Cl)cc1C(c1ccccc1)=NC2 [Alprazolam], the “Net Charge” value [1, 6] was −252 ± 59 pC/mg, the “Total net charge of aerosol particles (in words)” value (shortened to “Total net charge … (in words)”) [1] was “relatively large net negative charge” and the “Total net charge … (in words)” value ([1]; listed as ALP) was “net negatively charged”. The “Total net charge … (in words)” value ([1]; listed as alprazolam) was “substantial”, the “Ave Aerosol Charge” value ([2]; Metallized airway, ESD gun 16 kV+) was −111.63 pC and the “Ave Aerosol Charge” value ([2]; Metallized airway, no ESD gun) was −181.57 pC. The “Ave Aerosol Charge” value ([2]; Normal airway, ESD gun 16 kV+) was −220.405 pC, the “Ave Aerosol Charge” value ([2]; Normal airway, no ESD gun) was −220.645 pC and the “Ave Aerosol Charge” value ([2]; Permastat Plus airway, ESD gun 16 kV+) was −21.895 pC. The “Ave Aerosol Charge” value ([2]; Permastat Plus airway, no ESD gun) was −16.57 pC, the “Aerosol charge (in words)” value ([3]; Staccato heat packages with Staticide) was “small and negative” and the “Aerosol charge (in words)” value ([3]; Staccato heat packages without Staticide) was “large and negative”. For the same compound, the Aerosol charge polarity ([3]; partially Staticide-coated airway) was “positive polarity”, the Net Charge ([4]; anti-static polycarbonate airway housing) was −2.2 ± 1 and the “Total net charge, anti-static housing relative to standard housing (fold less)” value ([4]; anti-static vs standard housing) was 100 fold. For the same compound, the Net Charge ([4]; standard polycarbonate airway housing) was −279 ± 45, the Mean charge/mass ([5]; Permastat Plus airway) was −2.2 pC/mg and the Mean charge/mass ([5]; Permastat airway) was −46.2 pC/mg. For the same compound, the Mean charge/mass ([5]; control (normal) airway) was −279.2 pC/mg.

For CCCCNc1cc(C(=O)O)cc(S(N)(=O)=O)c1Oc1ccccc1 [Bumetanide], the “Aerosol charge relative to Alprazolam” value [3] was “about one order of magnitude lower”.

With CN1C(=O)CC(=O)N(c2ccccc2)c2cc(Cl)ccc21 [Clobazam] the “Net Charge” value [1, 6] was 0 ± 0 pC/mg.

In the case of CN1C(=O)CN=C(c2ccccc2)c2cc(Cl)ccc21 [Diazepam], the “Net Charge” value [1, 6] is reported as −1 ± 1 pC/mg.

In the case of Clc1ccc2c(c1)C(c1ccccc1)=NCc1nncn1-2 [Estazolam], the “Net Charge” value [1, 6] is reported as −202 ± 3 pC/mg and the “Total net charge … (in words)” value [1] is reported as “substantial”.

In the case of CN1CCN(CCCN2c3ccccc3Sc3ccc(Cl)cc32)CC1 [Prochlorperazine], the “Net Charge” value [1, 6] is reported as 27 ± 3 pC/mg and the “Aerosol charge relative to Alprazolam” value [3] is reported as “about one order of magnitude lower”.

With Cc1nnc2n1-c1ccc(Cl)cc1C(c1ccccc1Cl)=NC2 [Triazolam] the “Net Charge” value [1, 6] was −158 ± 13 pC/mg and the “Total net charge … (in words)” value [1] was “substantial”.

With CCN(C(C)=O)c1cccc(-c2ccnc3c(C#N)cnn23)c1 [Zaleplon] the Net Charge ([1]; +16 kV applied to airway housing) was −15 ± 6 pC/mg, the “Net Charge” value [1, 6] was 7 ± 1 pC/mg and the Net Charge ([1]; −16 kV applied to airway housing) was 2 ± 8 pC/mg. The “Degree of aerosol charge (in words)” value ([3]; Example 3) was “low degree of charge”.
